In test [1] the test system is CLP-induced sepsis in BALB/c mice. The test can be described thus: Septic survival after cecal ligation and puncture (CLP). It is filed as in vivo, mouse. As to conditions: i.p. As to the method: Experimental sepsis was induced in BALB/c mice via CLP as previously described. […] The animals were randomly assigned to the control vehicle (n = 10 or n = 20) or experimental groups (n = 10 or n = 20). P2 (5.0 mg/kg), P2-1 (0.1 mg/kg or 1.0 mg/kg), or tetranectin N-terminal deletion mutant (ΔTN) (1.0 mg/kg) were administered intraperitoneally (i.p.) at the indicated time points, and survival rates were monitored. To elucidate P2-1’s protective mechanisms, a separate group of BALB/c mice (n = 4) underwent CLP and received P2-1 (1.0 mg/kg) at 2 h and 20 h post-CLP. At 24 h post-CLP, the animals were euthanized, blood was collected, and serum cytokines and chemokines were measured via murine cytokine antibody arrays as previously described. More details are presented in Additional file 1: Methods.
For these preclinical studies, animals were random ly assigned to experimental groups and treated with P2, P2-1, or a pCTS-L-neutralizing mAb2 according to the indicated dosing regimens. Outcomes, including septic survival rates, arthritis severity, pain sensitivity, and joint tissue histology scores, were collected under blinded experiment al conditions. The study d esign and sample si zes fo r each exp eriment are d etailed in the figure legends. No data, including outlier values, were excluded. For skewed data, outliers were defined via the interquartile range (IQR) method as any value below Q 1 –(1.5 × IQR) or above Q 3 + (1.5 × IQR). For normally distributed data, outliers were defined via the Z-score method as any value with an absolute Z-score greater than 2 or 3. The primary data are reported in Additional file 4. All the reagent sources are listed in Additional file 1: Table S1 .
Cecal ligation and puncture (CLP) sepsis model […]
screening. c Expression and purification of recombinant full-length human TN (residues 1 – 181) and its N-terminal deletion mutant ( ΔTN, residues 45 – 181). […] Recombinant Δ TN was given intraperitoneally at 24 h and 48 h post-C L P, and animal survival rates were monitored. *P < 0.0 5. […]

Test [2] deals with Differentiated human macrophages. The test can be described thus: HMGB1-induced macrophage death, LDH release. It is filed as cell-based. Set-up: key: % of maximal LDH release (2% Triton X-100). As to conditions: 16 h, percentage of maximal release (2% Triton X-100) per method, individual replicates. Here is the method: Human macrophage differentiation and treatment
Human PBMCs were differentiated into macrophages by culturing in human macrophage colony-stimulating factor (M-CSF, 20 ng/ml) for 5 – 6 d. Differentiated macrophages were maintained in Dulbecco’s modified Eagle’s medium supplemented with 1% penicillin/streptomycin and 10% human serum. Upon reaching 70 – 80% conflu ence, adh erent cells were wash ed and switched to Opti-MEM I before stimulation with recombinant HMGB1 (0.5 µg/ml) with or without P2- 1 (5.0 or 10 µg/ml) for 16 […]
Cell viability was assessed via the tryp an blue excl usion and lactat e dehyd ro genase (LDH) release method as previously described . For trypan blue exclusion, random phase-contr ast images were captur ed , and the percentage of nonviable, trypan blue-stained cells was calculated. LDH release in the culture medium was quantified with an LDH Ass ay Kit (Cat. #L7572, Pointe Scientific Inc., Canton, MI, USA) according to the manufacturer ’s instructions. Optical density was measured at 340 nm, and LDH content was expressed as a per centag e of maximal release in the presence of 2% Triton X-100. The experiments were performed 5 – 7 times ( n= 5 –7 biological replicates). […]

The results in this text go back to PMC12914960, “Repurposing a detrimental antibody epitope as targeted therapeutics for sepsis and rheumatoid arthritis” (Military Medical Research, 2026).

Structures are written as SMILES. Several values for one entry are separate records, joined by “and”; a condition that tells them apart may be missing. Identical values can stand only once. Where a SMILES comes first, the peptide text is derived from it.

Take `CCCC[C@H](NC(=O)[C@H](Cc1c[nH]cn1)NC(=O)[C@@H](NC(=O)[C@H](CCCCN)NC(=O)[C@@H](N)[C@@H](C)O)C(C)C)C(=O)N[C@@H](CCCCN)C(=O)N[C@@H](CO)C(=O)N[C@@H](Cc1ccccc1)C(=O)N[C@@H](CC(C)C)C(=O)N[C@@H](C)C(=O)N[C@@H](Cc1ccccc1)C(=O)N[C@@H](CCC(N)=O)C(=O)N[C@H](C(=O)N[C@@H](CCCCN)C(=O)N[C@H](C(=O)O)[C@@H](C)O)[C@@H](C)O` [P2-1] (HELM PEPTIDE1{T.K.V.H.[Nle].K.S.F.L.A.F.Q.T.K.T}$$$$V2.0; N-terminus and C-terminus assumed): the “septic survival, in words” value in test [1] (P2-1 0.1 mg/kg at 2, 20, 28, 44, and 52 h post-CLP) was “conferred significant protection against sepsis”; in test [1] (P2-1 1.0 mg/kg at 24 h and 48 h post-CLP) it was “potent protection against lethal sepsis even with delayed therapeutic administration”. Further, the LDH release in test [2] (HMGB1 0.5 µg/ml + P2-1 5.0 μg/ml) is 2.7008 and 6.752 and 2.4476 and 4.642 and 0.844 and 5.6548; in test [2] (HMGB1 0.5 µg/ml + P2-1 10.0 μg/ml), 1.0128 and 2.532 and 6.752 and 3.376 and 5.4016 and 2.6164 and 1.1816.
